Measurements as given in US8877814B2, “Titration package for neramexane and its use in the treatment of an inner ear disorder” (Merz Pharma GmbH & Co. KGaA, priority 2007, dated 2014).

Experiments:
α 9/α 10 nicotinic = α 9/α 10 nicotinic (Rattus norvegicus, UniProt P43144+Q9JLB5); conditions: Plazas et al., Eur J. Pharmacol. 2007; cited from earlier work
5-HT3 receptors = conditions: cited from earlier work
[1] = system: subjects with subjective tinnitus of at least moderate severity; assay: Double blind placebo controlled pilot trial of neramexane for tinnitus: treatment emergent adverse events leading to drop-out
Experimental: The primary objective of this study was to compare the efficacy, tolerability and safety of neramexane mesylate at three different dosages (25, 50 or 75 mg/d) with placebo in subjects with subjective tinnitus of at least moderate severity.
In a double-blind, multicenter, randomized, placebo-controlled, parallel-group study, the efficacy of neramexane in subjects suffering from tinnitus of at least moderate severity was assessed. Approximately 100 patients, who fulfilled particular inclusion criteria and met none of particular exclusion criteria, were randomized to each of four double-blind treatment groups (neramexane mesylate 25, 50, 75 mg/d or placebo), resulting in approximately 400 patients in total.
The double-blind, 16-week treatment period consisted of a 4-week uptitration period and a 12-week fixed-dose treatment period at unchanged maintenance b.i.d. dosing. In case of poor tolerability, however, the investigator could consider a dose reduction by 25 mg/d (or placebo, respectively). […] In total, this study involved seven study visits: screening, baseline, and at the end of weeks 4, 8, 12, 16, and 20. (Participants received either neramexane mesylate (e.g. 50 mg, as 25 mg immediate release tablets given twice daily) or placebo twice daily for 16 weeks. Neramexane mesylate was uptitrated in weekly steps of 12.5 or 25 mg during a 4-week uptitration period preceding the fixed-dose 12-week treatment period. Treatment was followed by a four week follow-up period.)
Neramexane mesylate immediate release tablets (12.5 mg and 25 mg) and matching placebo tablets were administered as film coated tablets.
Study medication was dispensed at Visit 2 (baseline, day 0). Each patient received one blister box containing 5 blister cards (including one reserve blister) of double-blind study medication (i.e., 32 tablets). Subjects were instructed to take 2 tablets twice daily (4 tablets/d), beginning the day after dispensing of the study medication, until they returned for their next study visit (Visit 3). For those subjects assigned to receive active medication, some placebo tablets were incorporated into the dosing regimen to ensure blinding during the uptitration period. The target fixed-maintenance dose of 25, 50, or 75 mg/d was administered starting with the fifth week of double-blind treatment and was continued throughout the study. At each of the subsequent visits (Visits 3, 4, and 5, corresponding to end of week 4, 8 and 12) patients received another blister box containing 5 blister cards for the 4 week intervals, with double-blind medication for the intervening treatment period until the next study visit.
In case of poor tolerability the investigator could consider a dose reduction of 25 mg/d by omitting the bigger tablet in the morning which constituted an effective dose reduction only in the 75 mg/d and 50 mg/d neramexane mesylate groups. After omitting the bigger tablet (25 mg or placebo, respectively) of the morning dose, these patients could then continue the course of the study as scheduled, while receiving only one smaller tablet as the morning dose (12.5 mg or placebo, respectively) and 2 tablets of different sizes (12.5 mg, 25 mg or placebo, respectively) as the evening dose. The dose was to be kept stable until the end of the study.

[2] = system: patients afflicted with various degrees of hearing loss; assay: Double blind placebo controlled pilot trial of neramexane for treatment of hearing loss; format: in vivo, human; conditions: neramexane mesylate up to 75 mg/d, compared to the placebo group
Experimental: A hearing threshold level may be defined as the average of the pure tone hearing threshold levels at testing frequencies of 0.25, 0.5, 1, 2 and 4 kHz.
The primary objective of this study is to investigate the safety and efficacy of neramexane mesylate at daily doses of up to 75 mg in the treatment of hearing loss in comparison to placebo.
Neramexane mesylate (or placebo) is uptitrated to a maximum daily dose of 75 mg, starting with a daily dose of 25 mg for one week, and increasing dosage in 25 mg steps at weekly intervals.
Treatment is started in the evening of study day 1. The daily starting dose is 25 mg neramexane mesylate per dose to be taken for 7 days at bedtime. […]
Primary Outcome • Change from baseline in hearing threshold level of left/right ear (dB) calculated as average of the pure tone hearing level threshold levels at 0.25, 0.5, 1, 2 and 4 kHz.
Secondary Outcomes • Change from baseline in high frequency hearing threshold of left/right ear (dB) calculated as average of the pure tone hearing threshold levels at 4, 6, 8 and 10 kHz • Change from baseline in individual frequencies (hearing thresholds) on a pure tone audiogram (air conduction) • Number of Responder • Patient-reported outcome on a 11-point Likert-Scale (0=hearing is not a problem, 10=hearing is a problem as much as possible) • Change in hearing impairment based on the hearing threshold level: […]

Chain of α 9/α 10 nicotinic (P43144 26-479): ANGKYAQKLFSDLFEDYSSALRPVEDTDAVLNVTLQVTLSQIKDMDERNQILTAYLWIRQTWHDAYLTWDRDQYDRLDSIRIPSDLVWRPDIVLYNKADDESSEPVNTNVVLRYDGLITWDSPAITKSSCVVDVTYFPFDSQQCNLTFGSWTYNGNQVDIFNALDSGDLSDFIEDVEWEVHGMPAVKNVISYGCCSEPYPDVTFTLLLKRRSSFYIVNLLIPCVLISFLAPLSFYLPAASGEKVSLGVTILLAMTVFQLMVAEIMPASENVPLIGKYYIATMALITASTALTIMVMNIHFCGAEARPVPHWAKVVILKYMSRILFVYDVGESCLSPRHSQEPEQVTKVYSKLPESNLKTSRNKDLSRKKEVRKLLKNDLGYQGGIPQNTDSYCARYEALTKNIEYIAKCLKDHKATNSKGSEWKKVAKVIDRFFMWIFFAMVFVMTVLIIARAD
Chain of α 9/α 10 nicotinic (Q9JLB5 25-447): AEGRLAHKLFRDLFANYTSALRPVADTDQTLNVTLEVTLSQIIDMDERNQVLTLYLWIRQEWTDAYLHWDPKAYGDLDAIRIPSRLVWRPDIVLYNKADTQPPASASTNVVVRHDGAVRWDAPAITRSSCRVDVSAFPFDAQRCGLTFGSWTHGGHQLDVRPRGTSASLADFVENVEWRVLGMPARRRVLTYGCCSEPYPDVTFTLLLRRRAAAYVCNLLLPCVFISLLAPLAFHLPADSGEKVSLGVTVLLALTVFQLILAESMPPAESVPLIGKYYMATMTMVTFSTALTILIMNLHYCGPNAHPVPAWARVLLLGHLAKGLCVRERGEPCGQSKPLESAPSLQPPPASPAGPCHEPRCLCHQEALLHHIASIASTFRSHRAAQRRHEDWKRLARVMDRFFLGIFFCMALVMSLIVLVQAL

CC1(C)CC(C)(C)CC(C)(N)C1 [Neramexane, 1-amino-1,3,3,5,5-pentamethylcyclohexane]
(21.5) %: Any adverse event leading to drop-out, % of patients ([1]; 50 mg/d, N = 107, EFS)
2: Dizziness leading to drop-out, n (number of patients) ([1]; 25 mg/d, N = 108, EFS) | Tinnitus leading to drop-out, n (number of patients) ([1]; 25 mg/d, N = 108, EFS) | Cardiovascular disorder leading to drop-out, n (number of patients) ([1]; 50 mg/d, N = 107, EFS) | Depression leading to drop-out, n (number of patients) ([1]; 50 mg/d, N = 107, EFS) | Fatigue leading to drop-out, n (number of patients) ([1]; 50 mg/d, N = 107, EFS) | Nausea leading to drop-out, n (number of patients) ([1]; 50 mg/d, N = 107, EFS) | Paresthesia leading to drop-out, n (number of patients) ([1]; 50 mg/d, N = 107, EFS) | Fatigue leading to drop-out, n (number of patients) ([1]; 75 mg/d, N = 102, EFS) | Headache leading to drop-out, n (number of patients) ([1]; 75 mg/d, N = 102, EFS) | Hyperhidrosis leading to drop-out, n (number of patients) ([1]; 75 mg/d, N = 102, EFS) | Nausea leading to drop-out, n (number of patients) ([1]; 75 mg/d, N = 102, EFS) | Visual acuity reduced leading to drop-out, n (number of patients) ([1]; 75 mg/d, N = 102, EFS)
3: Vertigo leading to drop-out, n (number of patients) ([1]; 75 mg/d, N = 102, EFS)
23: Any adverse event leading to drop-out, n (number of patients) ([1]; 50 mg/d, N = 107, EFS)
(28.4) %: Any adverse event leading to drop-out, % of patients ([1]; 75 mg/d, N = 102, EFS)
(2.9) %: Vertigo leading to drop-out, % of patients ([1]; 75 mg/d, N = 102, EFS)
29: Any adverse event leading to drop-out, n (number of patients) ([1]; 75 mg/d, N = 102, EFS)
(3.7) %: Vertigo leading to drop-out, % of patients ([1]; 50 mg/d, N = 107, EFS)
(0.9) %: Depression leading to drop-out, % of patients ([1]; 25 mg/d, N = 108, EFS) | Headache leading to drop-out, % of patients ([1]; 50 mg/d, N = 107, EFS)
(14.7) %: Dizziness leading to drop-out, % of patients ([1]; 75 mg/d, N = 102, EFS)
(5.6) %: Dizziness leading to drop-out, % of patients ([1]; 50 mg/d, N = 107, EFS)
15: Dizziness leading to drop-out, n (number of patients) ([1]; 75 mg/d, N = 102, EFS)
(0.0) %: Cardiovascular disorder leading to drop-out, % of patients ([1]; 25 mg/d, N = 108, EFS) | Fatigue leading to drop-out, % of patients ([1]; 25 mg/d, N = 108, EFS) | Headache leading to drop-out, % of patients ([1]; 25 mg/d, N = 108, EFS) | Hyperhidrosis leading to drop-out, % of patients ([1]; 25 mg/d, N = 108, EFS) | Nausea leading to drop-out, % of patients ([1]; 25 mg/d, N = 108, EFS) | Paresthesia leading to drop-out, % of patients ([1]; 25 mg/d, N = 108, EFS) | Vertigo leading to drop-out, % of patients ([1]; 25 mg/d, N = 108, EFS) | Visual acuity reduced leading to drop-out, % of patients ([1]; 25 mg/d, N = 108, EFS) | Hyperhidrosis leading to drop-out, % of patients ([1]; 50 mg/d, N = 107, EFS) | Tinnitus leading to drop-out, % of patients ([1]; 50 mg/d, N = 107, EFS) | Visual acuity reduced leading to drop-out, % of patients ([1]; 50 mg/d, N = 107, EFS) | Cardiovascular disorder leading to drop-out, % of patients ([1]; 75 mg/d, N = 102, EFS) | Depression leading to drop-out, % of patients ([1]; 75 mg/d, N = 102, EFS) | Paresthesia leading to drop-out, % of patients ([1]; 75 mg/d, N = 102, EFS)
exhibit activity: activity at the α 9/α 10 nicotinic receptors (α 9/α 10 nicotinic) | activity at 5-HT3 receptors (5-HT3 receptors)
9: Any adverse event leading to drop-out, n (number of patients) ([1]; 25 mg/d, N = 108, EFS)
(2.0) %: Fatigue leading to drop-out, % of patients ([1]; 75 mg/d, N = 102, EFS) | Headache leading to drop-out, % of patients ([1]; 75 mg/d, N = 102, EFS) | Hyperhidrosis leading to drop-out, % of patients ([1]; 75 mg/d, N = 102, EFS) | Nausea leading to drop-out, % of patients ([1]; 75 mg/d, N = 102, EFS) | Visual acuity reduced leading to drop-out, % of patients ([1]; 75 mg/d, N = 102, EFS)
0: Cardiovascular disorder leading to drop-out, n (number of patients) ([1]; 25 mg/d, N = 108, EFS) | Fatigue leading to drop-out, n (number of patients) ([1]; 25 mg/d, N = 108, EFS) | Headache leading to drop-out, n (number of patients) ([1]; 25 mg/d, N = 108, EFS) | Hyperhidrosis leading to drop-out, n (number of patients) ([1]; 25 mg/d, N = 108, EFS) | Nausea leading to drop-out, n (number of patients) ([1]; 25 mg/d, N = 108, EFS) | Paresthesia leading to drop-out, n (number of patients) ([1]; 25 mg/d, N = 108, EFS) | Vertigo leading to drop-out, n (number of patients) ([1]; 25 mg/d, N = 108, EFS) | Visual acuity reduced leading to drop-out, n (number of patients) ([1]; 25 mg/d, N = 108, EFS) | Hyperhidrosis leading to drop-out, n (number of patients) ([1]; 50 mg/d, N = 107, EFS) | Tinnitus leading to drop-out, n (number of patients) ([1]; 50 mg/d, N = 107, EFS) | Visual acuity reduced leading to drop-out, n (number of patients) ([1]; 50 mg/d, N = 107, EFS) | Cardiovascular disorder leading to drop-out, n (number of patients) ([1]; 75 mg/d, N = 102, EFS) | Depression leading to drop-out, n (number of patients) ([1]; 75 mg/d, N = 102, EFS) | Paresthesia leading to drop-out, n (number of patients) ([1]; 75 mg/d, N = 102, EFS)
4: Vertigo leading to drop-out, n (number of patients) ([1]; 50 mg/d, N = 107, EFS)
improvement: Primary outcome: change from baseline in hearing threshold level [2] | Secondary outcomes (e.g. change from baseline in different frequencies on a pure tone audiogram) [2]
(1.9) %: Dizziness leading to drop-out, % of patients ([1]; 25 mg/d, N = 108, EFS) | Tinnitus leading to drop-out, % of patients ([1]; 25 mg/d, N = 108, EFS) | Cardiovascular disorder leading to drop-out, % of patients ([1]; 50 mg/d, N = 107, EFS) | Depression leading to drop-out, % of patients ([1]; 50 mg/d, N = 107, EFS) | Fatigue leading to drop-out, % of patients ([1]; 50 mg/d, N = 107, EFS) | Nausea leading to drop-out, % of patients ([1]; 50 mg/d, N = 107, EFS) | Paresthesia leading to drop-out, % of patients ([1]; 50 mg/d, N = 107, EFS)
6: Dizziness leading to drop-out, n (number of patients) ([1]; 50 mg/d, N = 107, EFS)
1: Depression leading to drop-out, n (number of patients) ([1]; 25 mg/d, N = 108, EFS) | Headache leading to drop-out, n (number of patients) ([1]; 50 mg/d, N = 107, EFS) | Tinnitus leading to drop-out, n (number of patients) ([1]; 75 mg/d, N = 102, EFS)
(8.3) %: Any adverse event leading to drop-out, % of patients ([1]; 25 mg/d, N = 108, EFS)
(1.0) %: Tinnitus leading to drop-out, % of patients ([1]; 75 mg/d, N = 102, EFS)
